Laboratory results taken from US20140038953A1, “COMPOSITIONS AND METHODS FOR CARDIOVASCULAR DISEASE” (THE GENERAL HOSPITAL CORPORATION, priority 2011, published 2014).
“Also recorded” adds a separate entry of the source.

Tests used:
[1] = test system: constitutively-active mutant form of ALK2; assay: Mouse model of FOP (constitutively-active mutant ALK2); assay type: in vivo; conditions: 3 mg/kg ip twice daily
Text: A mouse model of FOP has been developed in which expression of a constitutively-active mutant form of ALK2 is induced by injecting the popliteal fossa of a genetically-modified mouse with an adenovirus directing expression of Cre recombinase. This model reproduces the ectopic calcification and disability seen in FOP patients.

LDLR−/− mice = assay: Hepatic steatosis in LDLR−/− mice on high fat diet; assay type: in vivo; conditions: high fat diet 20 weeks, 2.5 mg/kg ip daily
Method: Aortas were either immediately embedded and cryopreserved using optimal cutting-temperature medium (Sakura Tissue-Tek, Zoeterwoude, The Netherlands) or fixed in paraformaldehyde and embedded in parafin. The presence of calcification was determined by staining tissue sections with Alizarin red or Von Kossa. Lipid accumulation in tissue sections was visualized by staining with Oil Red O. Liver sections were prepared from paraformaldehyde-fixed tissue and stained with hematoxylin and eosin.

HepG2 cells = assay: ApoB-100 secretion in HepG2 cells (ELISA); assay type: cell-based, human; conditions: compound 13 100 nM, atorvastatin 1 nM, ALK3-Fc 400 ng/mL
Method: Hepatoma G2 (HepG2) cells and human aortic endothelial cells (HAECs) were purchased from the American type culture collection (Manassas, Va.). HepG2 cells were maintained in Eagle's Minimum Essential Medium (EMEM) supplemented with 10% fetal bovine serum, 100 units/ml of penicillin, 0.1 mg/ml of streptomycin and glutamine. HAECs were cultured in endothelial cell basal medium (EBM 2) supplemented with the EBM2 bullet kit (Lonza, Basel, Switzerland). For experiments, cells were seeded into 6 or 12-well plates (BD Falcon, Franklin Lakes, N.J.) at a concentration of 0.5×10^6 cells per 5 mL of media. HAECs were maintained in EBM 2 with 0.1% FBS without additional growth factors for all experiments. HepG2 cells were grown to 70% confluence before they were incubated in EMEM enriched with 0.1% FBS. ApoB-100 measurements were performed in supernatants from HepG2 that had been incubated in EMEM containing 0.5% bovine serum albumin using a commercially available Human ApoB-100 ELISA kit (Mabtech AB, Nacka Strand, Sweden). BMP2 protein measurements were performed in supernatants from HAECs that had been incubated in EBM2 containing 0.1% FBS using a BMP2 ELISA kit (R&D Systems).

phospho-Smad 1/5/8 = assay: Phospho-Smad 1/5/8 immunohistochemistry in MGP−/− aortas; assay type: in vivo; conditions: MGP−/− mice, 2.5 mg/kg once daily IP day 1 to 28
Method: MGP−/− mice were treated with either vehicle or the small molecule BMP type I receptor inhibitor compound 13 (2.5 mg/kg once daily IP) from day 1 to 28. Compound 13 is used as a BMP inhibitor positive control compound in these experiments. Whole aortas were harvested for phospho-Smad 1/5/8 (P-Smad) immunohistochemistry, a marker of BMP signaling, and for Alizarin Red staining of calcium. Osteogenic activity in aortas was visualized ex vivo by the uptake of a fluorescent bisphosphonate imaging probe. MGP−/− mice were also treated with vehicle or compound 13 to ascertain if inhibition of BMP signaling could impact survival, using Kaplan-Meier and Cox regression analysis. […] To further quantify aortic calcium, a fluorescent bisphosphonate agent that specifically binds to hydroxyapatite (OsteoSense 680 nm, Perkin Elmer) was used. (Aikawa E, et al. Multimodality molecular imaging identifies proteolytic and osteogenic activities in early aortic valve disease. Circulation. 2007; 115(3):377-386 and Zaheer A, et al. In vivo near-infrared fluorescence imaging of osteoblastic activity. Nature biotechnology. 2001; 19(12):1148-1154.) MGP−/− mice at 27 days of age treated with vehicle or compound 13 received OsteoSense via tail vein, and 24 h later, aortas were harvested for imaging. […]

C57BL/6 mice = assay: Blood biochemical analysis in WT mice fed a high fat diet; assay type: in vivo
Method: Female mice deficient for the low density lipoprotein receptor (LDLR^−/−) on a C57BL/6 background with appropriate control mice mice (eight weeks of age) were obtained from Jackson Laboratories (Bar Harbor, Me.). Animals were fed a western style diet formulated to match Paigen's Atherogenic Rodent Diet (42% fat, 0.15% cholesterol, 19.5% casein; Research Diets Inc., New Brunswick, N.J.).
[…], white blood count, hematocrit, hemoglobin, and platelets were analyzed using a HemaTrue™ Hematology Analyzer (Heska AG, Switzerland). Urea nitrogen, glucose, alkaline phosphatase, total protein, alanine transaminase and creatinine were determined using a Spotchem EZ SP-4430 POCT analyzer (Arkray, Inc., Kyoto, Japan). HDL and LDL levels were determined using a fluorescence quantification kit (K613-100, Biovision, Mountain View, Calif.)

MGP−/− mice = assay: Survival of MGP−/− mice; assay type: in vivo; conditions: 2.5 mg/kg/day IP from day 1, n=10 in each group
Method: MGP−/− mice were treated with either vehicle or the small molecule BMP type I receptor inhibitor compound 13 (2.5 mg/kg once daily IP) from day 1 to 28. Compound 13 is used as a BMP inhibitor positive control compound in these experiments. Whole aortas were harvested for phospho-Smad 1/5/8 (P-Smad) immunohistochemistry, a marker of BMP signaling, and for Alizarin Red staining of calcium. Osteogenic activity in aortas was visualized ex vivo by the uptake of a fluorescent bisphosphonate imaging probe. MGP−/− mice were also treated with vehicle or compound 13 to ascertain if inhibition of BMP signaling could impact survival, using Kaplan-Meier and Cox regression analysis.
Twenty MGP−/− mice were treated either with vehicle (n=10) or compound 13 (2.5 mg/kg/day IP, n=10) beginning at day 1 of life and followed for survival.

[2] = listed as compound 13, 2.5 mg/kg
[3] = female C57BL/6 WT mice, high fat diet 30 weeks, 2.5 mg/kg ip daily, mean ± SEM

Compound: c1ccc2c(-c3cnn4cc(-c5ccc(N6CCNCC6)cc5)cnc34)ccnc2c1 [Compound 13, 4-[6-(4-piperazin-1-ylphenyl)pyrazolo[1,5-a]pyrimidin-3-yl]quinoline]
- ectopic calcification and disability [1]: prevented the ectopic calcification and disability
- hepatic steatosis (LDLR−/− mice; 2.5 mg/kg): protected from hepatic steatosis
- hepatic steatosis (LDLR−/− mice; [2]): could be prevented
- BMP2-induced ApoB-100 secretion (HepG2 cells; BMP2 100 ng/mL): blocked; also recorded: prevented the BMP2-mediated induction of ApoB-100 secretion
- basal ApoB-100 secretion (absence of BMP2) (HepG2 cells): reduced basal apolipoprotein B100 (ApoB-100) secretion; also recorded: inhibited ApoB-100 production
- aortic P-Smad (Smad 1/5/8 phosphorylation) (phospho-Smad 1/5/8; 2.5 mg/kg): reduced aortic P-Smad
- aortic P-Smad (Smad 1/5/8 phosphorylation) (phospho-Smad 1/5/8; [2]): reduced BMP signaling
- Alanine transaminase (C57BL/6 mice; [3]): 159 ± 19 IU/L
- Alkaline phosphatase (C57BL/6 mice; [3]): 109 ± 8 IU/L
- Blood urea nitrogen (C57BL/6 mice; [3]): 25 ± 1 mg/dL
- Cholesterol (C57BL/6 mice; [3]): 183 ± 6 mg/dL
- Creatinine (C57BL/6 mice; [3]): 0.5 ± 0.0 mg/dL
- Glucose (C57BL/6 mice; [3]): 311 ± 12 mg/dL
- Hemoglobin (C57BL/6 mice; [3]): 13.5 ± 1.0 g/dL
- Total protein (C57BL/6 mice; [3]): 4.7 ± 0.2 g/dL
- Triglycerides (C57BL/6 mice; [3]): 82 ± 21 mg/dL
- total serum cholesterol vs vehicle (C57BL/6 mice; wild-type animals on a HFD, in words): reduced total serum cholesterol
- Cox hazard ratio (survival) (MGP−/− mice): 0.04
- survival compared to vehicle-treated controls (MGP−/− mice): improved survival
